Patent publication US8754115B2, “Fungicidal pyrazoles” (E I du Pont de Nemours and Company, priority 2010, dated 2014)
Marks after values point to notes of the source that are not given here.

How the values were obtained:
Format in all cases: in vivo
[1] = system: Puccinia recondite f. sp. tritici; assay: Test E1: curative spray on wheat seedlings after inoculation, visual disease rating (wheat leaf rust)
How it was run: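 Seedlings inoculated with rust spores, held 24 h in saturated atmosphere at 20 °C, then 2 days at 20 °C before curative spray to run-off with test suspension (200 ppm ≈ 800 g/ha, or 40 ppm where marked) in acetone/water with surfactant. Visual disease control rating (0–100) after 6 further days at 20 °C.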

Botrytis cinerea = assay: Test A: preventive spray on tomato seedlings, visual disease rating (tomato Botrytis)
How it was run: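 Tomato seedlings sprayed to run-off with 200 ppm suspension (800 g/ha; asterisk marks 40 ppm), inoculated next day with Botrytis cinerea spores, held 48 h saturated at 20 °C then 3 days at 24 °C. Visual rating: 100 = full disease control, 0 = none, relative to controls.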

[2] = system: Blumeria graminis f. sp. tritici; assay: Test F: preventive spray on wheat seedlings, visual disease rating (wheat powdery mildew)
How it was run: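 Compound in acetone/water (50/50) with 250 ppm surfactant, sprayed to run-off on wheat seedlings at 200 ppm (≈800 g/ha) or, where marked, 40 ppm. Seedlings dusted with spores the next day, kept 8 days at 20° C., then rated visually as % disease control versus untreated plants.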

Septoria tritici = assay: Test D: preventive spray on wheat seedlings, visual disease rating (wheat leaf blotch)
How it was run: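 Wheat seedlings were sprayed to run-off with a 200 ppm suspension (equal to 800 g/ha), or 40 ppm where marked with an asterisk, and inoculated with Septoria tritici spores the next day. Plants were kept at 24 °C in saturated air for 48 h, then at 20 °C for 19 days. Disease control was rated visually from 0 to 100 relative to controls.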

Alternaria solani = assay: Test B: preventive spray on tomato seedlings, visual disease rating (tomato early blight)
How it was run: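 Compounds were suspended at 200 ppm (asterisked values at 40 ppm) in acetone/water with surfactant and sprayed to run-off on tomato seedlings, 200 ppm being equivalent to 800 g/ha. A. solani spores were inoculated the next day, with 48 h at 27 °C in saturated air, then 5 days at 20 °C. Disease control was rated visually, 0–100% relative to controls.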

Septoria nodorum = assay: Test C: preventive spray on wheat seedlings, visual disease rating (Septoria glume blotch)
How it was run: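 Wheat seedlings were sprayed to run-off with 200 ppm suspension (40 ppm where marked; 200 ppm ≈ 800 g/ha) in acetone/water with 250 ppm Trem 014, then inoculated next day with Septoria nodorum spores. Incubation was 48 h saturated at 24 °C, then 6 days at 20 °C; visual rating 0–100% disease control versus controls.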

[3] = system: Puccinia recondite f. sp. tritici; assay: Test E2: preventive spray on wheat seedlings, visual disease rating (wheat leaf rust)
How it was run: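 Test suspension (acetone 3% of volume, acetone/water 50/50, 250 ppm Trem 014), 200 ppm unless starred (40 ppm), sprayed to run-off on wheat seedlings; inoculated next day with P. recondita spores. 24 h saturated atmosphere at 20 °C, then 7 days at 20 °C; visual rating, 100 = full control vs untreated.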

[4] = no asterisk: standard test suspension, not 40 ppm
[5] = no asterisk: standard test suspension, not 40 ppm, 100 = 100% disease control, 0 = none
[6] = asterisk: 40 ppm test suspension

| Compound | Test E1 rating (% disease control) [1, 4] | Test A rating (% disease control) (Botrytis cinerea; [5]) | Test F rating (% disease control) [2, 4] | Test D rating (% disease control) (Septoria tritici; [4]) | Test B rating (% disease control) (Alternaria solani; [4]) | Test C rating (% disease control) (Septoria nodorum; [4]) | Test E2 rating (% disease control) [3, 4] | Test E1 rating (% disease control) [1, 6] | Test A rating (% disease control) (Botrytis cinerea; [6]) | Test F rating (% disease control) [2, 6] | Test D rating (% disease control) (Septoria tritici; [6]) | Test B rating (% disease control) (Alternaria solani; [6]) | Test C rating (% disease control) (Septoria nodorum; [6]) | Test E2 rating (% disease control) [3, 6] |
| --- | --- | --- | --- | --- | --- | --- | --- | --- | --- | --- | --- | --- | --- | --- |
| Cc1nn(C)c(-c2ccc(C#N)cc2Cl)c1Oc1ccc(F)cc1Cl [compound 36] | 18% | 96% | 100% | 100% | 0% | 0% | 100% |  |  |  |  |  |  |  |
| Cc1nn(C)c(-c2c(F)cccc2F)c1C(O)c1ccc(F)cc1Br (centres unmarked) [compound 21] | 100% | 99% | 98% | 100% | 100% | 100% | 100% |  |  |  |  |  |  |  |
| Cc1nn(C)c(-c2ccc(F)cc2Cl)c1Nc1ccc(Cl)cc1F [Compound 45] | 77% | 100% | 99% | 100% | 0% | 0% | 97% | 0* % | 98* % | 100* % | 100* % | 33* % | 0* % | 95* % |
| Cc1nn(C)c(-c2c(F)cccc2F)c1C(F)c1ccc(F)cc1Cl (centres unmarked) [Compound 54] | 100% | 100% | 99% | 100% | 100% | 99% | 99% |  |  |  |  |  |  |  |
| Cc1nn(C)c(-c2c(F)cccc2Cl)c1C(O)c1c(F)cc(F)cc1F (centres unmarked) [compound 34] | 84% | 100% | 100% | 100% | 99% | 100% | 99% |  |  |  |  |  |  |  |
| Cc1nn(C)c(-c2c(F)cccc2F)c1S(=O)(=O)c1ccc(Cl)cc1 [compound 62] | 0% | 0% | 94% | 0% | 0% | 0% | 28% |  |  |  |  |  |  |  |
| Cc1nn(C)c(-c2ccc(F)cc2F)c1Oc1ccc(F)cc1F [compound 13] | 66% | 100% | 72% | 0% | 0% | 0% | 0% |  |  |  |  |  |  |  |
